Results from US20030083336A1, “Phenylpiperazinyl derivatives” (H. Lundbeck A/S, priority 1999, published 2003).

What was measured:
[1] = molecular target: T1, human cloned dopamine D4.2 receptors (Homo sapiens, UniProt P21917, DEL265-296); assay: Inhibition of the binding of 3H-YM-09151-2 to human dopamine D4 receptors; details: [3H]YM-09151-2 0.06 nM; for IC50: membranes of CHO-cells, read-out: D4-bind. IC50; for inhibition at 0.05 µM: test compound at 50 nM, read-out: D4-bind. % inhibition of binding at 50 nM
T1 construct: expressed in transfected cells; host or cells: CHO cells
T1 sequence (P21917 with tags, fused parts or gaps DEL265-296): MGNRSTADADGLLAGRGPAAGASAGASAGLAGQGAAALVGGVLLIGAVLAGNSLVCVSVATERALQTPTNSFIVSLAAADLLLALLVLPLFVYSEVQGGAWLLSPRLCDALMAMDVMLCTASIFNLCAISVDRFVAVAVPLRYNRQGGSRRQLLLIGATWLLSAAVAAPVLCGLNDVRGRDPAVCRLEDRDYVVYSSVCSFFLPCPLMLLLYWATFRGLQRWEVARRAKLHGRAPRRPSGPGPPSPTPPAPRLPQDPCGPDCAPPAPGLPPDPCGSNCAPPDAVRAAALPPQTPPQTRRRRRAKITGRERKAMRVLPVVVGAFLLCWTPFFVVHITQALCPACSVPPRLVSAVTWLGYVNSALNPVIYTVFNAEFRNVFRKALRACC
Description: Inhibition of the Binding of ^3H-YM-09151-2 to Human Dopamine D4 Receptors
By this method the inhibition by drugs of the binding of [^3H]YM-09151-2 (0.06 nM) to membranes of human cloned dopamine D4.2 receptors expressed in CHO-cells is determined in vitro. Method modified from NEN Life Science Products, Inc., technical data certificate PC2533-10/96. The results are given in the following Table 1 as IC50-values or as percent inhibition of the binding of ^3H-YM-09151 -2 at the concentration of the test compound indicated.

[2] = molecular target: T2, human cloned dopamine D3 receptors (Homo sapiens, UniProt P35462); assay: Inhibition of the binding of [3H]-Spiperone to human D3 receptors; details: [3H]Spiperone 0.3 nM; for IC50: membranes of CHO-cells, read-out: D3-bind. IC50; for inhibition at 0.05 µM: test compound at 50 nM, read-out: D3-bind. % inhibition of binding at 50 nM
T2 construct: expressed in transfected cells; host or cells: CHO cells
Description: Inhibition of the Binding of [^3H]-Spiperone to Human D3 Receptors
By this method the inhibition by drugs of the binding [^3H]Spiperone (0.3 nM) to membranes of human cloned dopamine D3 receptors expressed in CHO-cells is determined in vitro. Method modified from R. G. MacKenzie et al. Eur. J. Pharm.-Mol. Pharm. Sec. 1994, 266, 79-85. The results are given in the following Table 1 as IC50-values or as percent inhibition of the binding of ^3H-Spiperone at the concentration of the test compound indicated.

T2 sequence (P35462 whole entry): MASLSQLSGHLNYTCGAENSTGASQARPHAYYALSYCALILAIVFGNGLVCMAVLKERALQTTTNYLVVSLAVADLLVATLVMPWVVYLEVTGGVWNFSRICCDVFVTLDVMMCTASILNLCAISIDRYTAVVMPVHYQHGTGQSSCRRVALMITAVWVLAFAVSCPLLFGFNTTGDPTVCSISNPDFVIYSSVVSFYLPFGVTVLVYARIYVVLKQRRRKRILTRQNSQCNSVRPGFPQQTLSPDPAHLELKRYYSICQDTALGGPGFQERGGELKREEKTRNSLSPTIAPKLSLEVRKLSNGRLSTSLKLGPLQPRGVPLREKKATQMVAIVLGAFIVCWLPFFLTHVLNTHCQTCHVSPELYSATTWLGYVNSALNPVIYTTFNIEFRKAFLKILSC

## Cc1c(Oc2cccc(N(C)C)c2)cccc1N1CCN(CCCc2c[nH]c3ccccc23)CC1 [Compound 1a]
[1]
  IC50: 48 nM
[2]
  IC50: 26 nM

## Cc1c(N2CCOCC2)cccc1N1CCN(CCCc2c[nH]c3ccccc23)CC1 [Compound 1b, 1-[3-(1H-Indol-3-yl)propyl]-4-[2-methyl-3-(morpholin-4-yl)-phenyl]piperazine]
[1]
  IC50: 5.9 nM
[2]
  IC50: 220 nM

## CCN(CC)c1cccc(Oc2cccc(N3CCN(CCCc4c[nH]c5ccc(F)cc45)CC3)c2C)c1 [Compound 2a]
[1]
  IC50: 5.4 nM
[2]
  IC50: 10 nM

## Cc1c(N2CCOCC2)cccc1N1CCCN(CCCc2c[nH]c3ccc(F)cc23)CC1 [Compound 2aa, 1-[3-(Morpholin-4-yl)-2-methylphenyl]-4-[3-(5-fluoro-1H-indol-3-yl)propyl]-1,4-diazepane]
[1]
  inhibition at 0.05 µM: 53%
[2]
  inhibition at 0.05 µM: 40%

## CCN(CC)c1cccc(Oc2cccc(N3CCN(CCCCc4c[nH]c5ccc(Cl)cc45)CC3)c2C)c1 [Compound 2ab, 1-{3-[3-(Diethylamino)phenoxy]-2-methylphenyl}-4-[4-(5-chloro-1H-indol-3-yl)butyl]piperazine]
[1]
  inhibition at 0.05 µM: 53%
[2]
  inhibition at 0.05 µM: 83%

## COc1cc(Oc2cccc(N3CCN(CCCc4c[nH]c5ccc(F)cc45)CC3)c2C)cc(OC)c1OC [Compound 2b, 1-[2-Methyl-3-(3,4,5-trimethoxyphenoxy)phenyl]-4-[3-(5-fluoro-1H-indol-3-yl)propyl]piperazine]
[1]
  inhibition at 0.05 µM: 98%
[2]
  IC50: 6.8 nM

## CCN(CC)c1cccc(Oc2cccc(N3CCN(CCCc4c[nH]c5ccc(Cl)cc45)CC3)c2C)c1 [Compound 2c, 1-{3-[3-(Diethylamino)phenox]-2-methylphenyl}-4-[3-(5-chloro-1H-indol-3-yl)propyl]piperazine]
[1]
  IC50: 5.5 nM
[2]
  IC50: 13 nM

## CCN(CC)c1cccc(Oc2cccc(N3CCN(CCCc4c[nH]c5c(F)cc(F)cc45)CC3)c2C)c1 [Compound 2d, 1-{3-[3-(Diethylamino)phenoxy]-2-methylphenyl}-4-[3-(5,7-difluoro-1H-indol-3-yl)propyl]piperazine]
[1]
  IC50: 12 nM
[2]
  inhibition at 0.05 µM: 70%

## COc1cc(Oc2cccc(N3CCN(CCCc4c[nH]c5ccc(Cl)cc45)CC3)c2C)cc(OC)c1OC [Compound 2e, 1-[2-Methyl-3-(3,4,5-trimethoxyphenoxy)phenyl}-4-[3-(5-chloro-1H-indol-3-yl)propyl]piperazine]
[1]
  IC50: 10 nM
[2]
  inhibition at 0.05 µM: 71%

## CCN(CC)c1cccc(Oc2cccc(N3CCN(CCCc4c[nH]c5ccccc45)CC3)c2C)c1 [Compound 2f, 1-{3-[3-(Diethylamino)phenoxy]-2-methylphenyl}-4-[3-(1H-indol-3-yl)propyl]piperazine]
[1]
  IC50: 35 nM
[2]
  inhibition at 0.05 µM: 70%

## Cc1c(N2CCCN(CCCc3c[nH]c4ccc(F)cc34)CC2)cccc1N1CC(C)OC(C)C1 (stereo not shown) [Compound 2g, 1-[3-(2,6-Dimethylmorpholin-4-yl)-2-methylphenyl]-4-[3-(5-fluoro-1H-indol-3-yl)propyl]-1,4-diazepan]
[1]
  IC50: 26 nM
[2]
  inhibition at 0.05 µM: 65%

## Cc1c(Oc2cccc(N(C)C)c2)cccc1N1CCN(CCCc2c[nH]c3ccc(F)cc23)CC1 [Compound 2h, 1-{3-[3-(Dimethylamino)phenoxy]-2-methylphenyl}-4-[3-(5-fluoro-1H-indol-3-yl)propyl]piperazine]
[1]
  IC50: 37 nM
[2]
  inhibition at 0.05 µM: 77%

## Cc1c(Oc2ccc3c(c2)OCO3)cccc1N1CCN(CCCc2c[nH]c3ccccc23)CC1 [Compound 2i, 1-[3-(1,3-Benzodioxolan-5-yloxy)-2-methylphenyl]-4-[3-(1H-indol-3-yl)propyl]piperazine]
[1]
  IC50: 35 nM
[2]
  inhibition at 0.05 µM: 54%

## Cc1c(N2CCN(CCCc3c[nH]c4ccc(F)cc34)CC2)cccc1N1CC(C)OC(C)C1 (stereo not shown) [Compound 2j, 1-[3-(2,6-Dimethylmorpholin-4-yl)-2-methylphenyl]-4-[3-(5-fluoro-1H-indol-3-yl)propyl]piperazine]
[1]
  IC50: 36 nM
[2]
  inhibition at 0.05 µM: 57%
